Test results reported in publication PMC6270234, “Chemical Composition of Aspidosperma ulei Markgr. and Antiplasmodial Activity of Selected Indole Alkaloids” (Molecules, 2013).
Where “and” joins values, the source holds several entries; their conditions need not be identical. Equal entries are not always repeated. Entries after “also recorded” stand apart in the source; their conditions may differ. Where two headings read alike, the source gives them in different places.

Assays:
[1] = tested on: NIH3T3 murine fibroblasts; experiment: Cytotoxicity test using the Alamar Blue assay; format: cell-based; conditions: Mus musculus, 48 h, tested at 50 µg/mL, read-out: IC50 (toxicity to fibroblasts)
Description: The NHI-3T3 cell line of mouse fibroblasts was grown in DMEN medium supplemented with 10% fetal bovine serum, 2 mM glutamine, 100 µg/mL streptomycin and 100 U/mL penicillin, and incubated at 37 °C with a 5% atmosphere of CO2. For assays, the cells were plated in 96-well plates (10^4 cells per well) and the Alamar Blue^TM assay was performed using previously described procedures. Briefly, after 24 h, the compounds were dissolved in DMSO and added to each well to give final concentrations of 50 µg/mL. Plates were incubated for 48 h. Control groups had final well concentrations of 0.1% DMSO. Two hours before the end of the incubations, 10 µL of Alamar Blue^TM was added to each well. The fluorescent signal was monitored with a multiplate reader using 530–560 nm excitation and 590 nm emission wavelengths.

[2] = tested on: multi-drug resistant K1 strain of Plasmodium falciparum; experiment: In vitro antiplasmodial assay, inhibition of growth of parasites by optical microscopy; format: cell-based; conditions: for IC50: Plasmodium falciparum, K1, 48 h, read-out: IC50 ± SD; for Result: activity class from IC50 in µM, K1 strain
Description: The in vitro antiplasmodial test was performed as previously described. […] Sample solutions were applied to the wells of 96-well test plates containing red blood cell suspension having initial parasitemia of 1.5%. […] After incubation, the contents of the wells were evaluated by optical microscopy. The inhibition of the growth of parasites (IGP%) was evaluated as a percentage by comparison with controls:
IGP% = 100 × [1 – (parasitemia with sample/parasitemia of untreated controls)]

[3] = tested on: chloroquine-resistant Fc M29-Cameroon strain of Plasmodium falciparum; design: method as in PMID 21612900; conditions: cited from earlier work
[4] = cited from earlier work
Plasmodium berghei = tested on: Plasmodium berghei; design: method as in PMID 23092722; conditions: Plasmodium berghei-infected mice, daily doses of 50-100 mg/kg/day, 4-day suppressive test; cited from earlier work
[5] = tested on: K1 strain of P. falciparum; design: method as in PMID 17568942, PMID 23092722; conditions: cited from earlier work
[6] = P. falciparum K1 strain, 48 h incubation

SMILES	IC50 [1]	IC50 [2, 6]	Result [2]	also measured
COC(=O)[C@@H]1[C@H]2Cc3c4[nH]c5ccccc5c4cc[n+]3C[C@@H]2CC[C@H]1O [Compound 3, 3,4,5,6-tetradehydro-β-yohimbine]	> 50 µg/mL	39.9 ± 7.7 µM	I (IC50 > 20.0 µM = inactive (I))	melting point: 260 to 264 °C
CC=C1C[N+]23CCC1CC21Nc2ccccc2C1(O)CC3 (stereo not shown) [Compound 4, 19E-hunteracine]	> 50 µg/mL	> 176 µM	I (IC50 > 20.0 µM = inactive (I))	melting point: 343 to 343.3 °C
COC(=O)[C@@H]1[C@H]2CC3c4[nH]c5ccccc5c4CCN3C[C@@H]2CC[C@H]1O (stereo partly drawn) [Compound 5, β-yohimbine]	–	–	–	IC50 [3]: > 1 µg/mL
COC(=O)[C@@H]1[C@H]2C[C@H]3c4[nH]c5ccccc5c4CCN3C[C@@H]2CC[C@@H]1O [Compound 6, yohimbine]	–	–	–	IC50 [3]: > 1 µg/mL
Cc1nccc2c(C)c3[nH]c4ccccc4c3cc12 [Compound 8, olivacine]	–	–	–	cytotoxicity (in words) [4]: low cytotoxicity; in vivo antimalarial activity (in words) (Plasmodium berghei): high in vivo antimalarial activity; in vitro antiplasmodial activity (in words) [5]: significant in vitro antiplasmodial activity
CCC1C2CCN(C)C1c1c([nH]c3ccccc13)C2=O (stereo not drawn) [Compound 11, 20-epi-dasycarpidone]	> 50 µg/mL	4.5 µg/mL and 16.7 µM	MA (IC50 5–20 µM = moderately active (MA))	melting point: 164.3 to 165.3 °C; in vitro antiplasmodial activity (in words) ([2]; P. falciparum K1 strain): active; also recorded: moderate inhibitory activity
C/C=C1\CN2CCc3c([nH]c4ccccc34)CC1CC2 (stereo not shown) [Compound 12, 20(E)-nor-subincanadine E]	> 50 µg/mL	54.3 ± 10.5 µM	I (IC50 > 20.0 µM = inactive (I))	–
CC(=O)N1c2c(O)cccc2C23CC[N+]4=C2C(CC(=O)O)(CCC4)CCC13 (stereo not shown) [Compound 13, 12-hydroxy-N-acetyl-21(N)-dehydroplumeran-18-oic acid]	> 50 µg/mL	> 135 µM	I (IC50 > 20.0 µM = inactive (I))	–
CC[C@@]12CCCN3CC[C@]4(c5ccc(OC)c(O)c5N(C(C)=O)[C@@H]4CC1)[C@H]32 [aspidocarpine]	–	–	–	in vitro antiplasmodial activity (in words) [5]: significant in vitro antiplasmodial activity
CCN(CC)CCCC(C)Nc1ccnc2cc(Cl)ccc12 (stereo not shown) [chloroquine diphosphate, reference compound]	–	–	A (0.1 < IC50 < 5 µM = active (A))	IC50 [2]: 0.17 µg/mL and 330 nM
Cc1c2ccncc2c(C)c2c1[nH]c1ccccc12 [ellipticine, reference compound]	–	–	–	cytotoxicity (in words) [4]: low cytotoxicity; in vivo antimalarial activity (in words) (Plasmodium berghei): high in vivo antimalarial activity; in vitro antiplasmodial activity (in words) [5]: significant in vitro antiplasmodial activity
C=C[C@H]1C[N@@]2CC[C@H]1C[C@H]2[C@H](O)c1ccnc2ccc(OC)cc12 [quinine sulphate, reference compound]	–	0.12 µg/mL and 300 nM	–	–
